Measurements from US20140286945A1, “ENZYME INHIBITOR FOR CANCER TREATMENT” (The Curators of the University of Missouri, priority 2011, published 2014).

Experiments:
MCF-7 cells = test: MCF-7 cell proliferation (MTT); type: cell-based; details: for response of MCF-7 cells to treatment: at low doses
Method: Refer to FIG. 11, which compares MCF-7 cell proliferation data among the treatments of BIBB515, Tamoxifen, Anastraozole, and various combinations thereof. During the experiments, the MCF-7 cells were treated with charcoal-stripped serum prior to treatment and grown with treatment repeated every 72 hrs. The cells were grown for 6 days, on day 7 the cell proliferation was determined by adding MTT and read at 570 nm according to the manufactures instructions. […] Thus, inhibiting the cholesterol pathway can inhibit the estrogen induced cell proliferation in MCF-7 cells.

CD-54 = test: Flow-cytometric analysis of CD-54 in Mec-2 cells; type: cell-based; details: flow cytometry, Fludarabine 10 μM, compared to control (FIG. 2)
Raji cells = test: Raji (Burkitt lymphoma) cell viability at 72 hours; type: cell-based
Method: 1. Inhibition on cell viability of Raji after treatments with BIBB515 alone and in combination with Fludarabine. Burkitt lymphoma is a highly aggressive lymphoma, and Raji cells are sensitive to Fludarabine treatment at 10 μM concentration. […] Fludarabine was used at 5 μM concentration.
2. Inhibition on cell viability of Raji after treatments with Terbinafine alone and in combination with Fludarabine. […] The preferred cholesterol concentration range may also various between different cancer types.

Mec-2 cells [1] = test: Confocal microscopic analysis of glycosphingolipid density in Mec-2 cells; type: cell-based; details: confocal microscopy, relative to control, TAK-475 at 10 μM, data not shown
Method: Mec-2 cells were treated with BIBB515, YM-53601, or 10 μM of TAK-475 and imaged by confocal miscrscope. […] This would explain why rituximab is of limited or no efficacy in Mec-2 and Wac-3 cells, and provides a rationale for the efficacy of combination treatment with rituximab and a cholesterol biosynthetic pathway inhibitor.

patient CLL cells = test: Patient CLL cell viability; type: cell-based
Method: 1. Inhibition effect with BIBB515 alone and in combination with Fludarabine and Rituximab on patient cells. To assess the effect of treatment on cell viabilities, patient CLL cells were treated with BIBB515 alone and in combination with Fludarabine and Rituximab. Untreated CLL patient cell samples and samples of patients exposed to Fludarabine were used. The treatment was done 24 hrs after the cells plated in T25 flasks.

[2] = rat, hamster, squirrel monkey and minipig models; due to inhibition of LDL production; cited from earlier work
Wac-3 cells = test: MTT assay of cell viability in Wac-3 cells; type: cell-based
CD-20 = test: Flow-cytometric analysis of CD-20 in Mec-2 cells; type: cell-based; details: flow cytometry, Fludarabine 10 μM, compared to control (FIG. 2)
Mec-2 cells [3] = test: Membrane lipid content of Mec-2 cells by mass spectrometry; type: cell-based; details: 24 hrs, 10^−5 M; for some diacyl phosphatidylcholine species: versus DMSO controls; for lysophosphatidylcholines (LPC): versus DMSO controls (FIG. 19); for levels of phosphatidylcholines (PC): versus DMSO controls (FIG. 20); for levels of glycosphingolipids/dihydroglycosphingolipids: versus DMSO controls (FIG. 21); for levels of ether-linked phosphatidylcholines: versus DMSO controls (FIG. 22)
Method: Lipids were extracted by the following chloroform and methanol method. To 0.8 parts cells in aqueous solution, 1 part chloroform and 2 parts methanol was added and shaken well, then another 1 part chloroform and 1 part water added and shaken. The mixture was then centrifuged at low speeds for 5-10 min. and the lower layer removed. One part chloroform was added 3 times, shaken and centrifuged to again remove the lower layer. The layers were then combined, washed with KCl and then water. The extracted lipids from Mec-2 cells were vacuum dried after 24 hrs. of treatment with BIBB(10^−5 M) and YM(10^−5 M). Controls were treated with DMSO.
Samples were analyzed by mass spectrometry by the Kansas Lipidomics Research Center (KLRC) and identified and quantified by comparison against standard molecular weights of lipids. Each sample was loaded, vaporized, and ionized by electron beam; ions electromagnetically separated according to mass-to-charge ratio (m/z) were detected, and the ion signal processed into mass spectra.
Compounds were identified based on m/z of the intact ion and the mass of one fragment formed in the mass spectrometer: typically, for polar lipids, a head group fragment; for sphingolipids, a fragment characteristic of the long-chain base or sugar(s); for neutral lipids and for specialized analyses, often an acyl fragment. Quantities were reported as normalized signal/(tissue metric nanomole/3 million cells) against internal standards added in known amounts, usually with an adjustment for variation in response with m/z. Thus, quantities reported as normalized signal/(tissue metric) for diacyl or monoacyl phospholipids can be considered to be equal to nmol/(tis sue metric).

Mec-2 cells [4] = details: 10 µM
dog lymphoma cells = test: Dog lymphoma cell viability; type: cell-based; details: BIBB515 10 μM
Excerpt: Spontaneously occurring lymphoma in the dog has many of the same histopathological, molecular, and clinical features as non-Hodgkin's lymphoma (NHL) in humans. Most of the lymphoma subtypes recognized in humans have histopathologically identical counterparts in the dog and recent investigations show similar molecular characteristics in the two species. Likewise, spontaneous lymphoma in the dog has a similar clinical presentation, response to chemotherapy, and clinical progression compared to NHL in human patients. […] A canine lymphoma cell line, OSW, was established from the thoracic effusion of a dog with relapsed peripheral T-cell lymphoma. […] See, e.g., U.S. Pat. No. 7,897,150 and Kisseberth, W. C., et al., “A novel canine lymphoma cell line: a translational and comparative model for lymphoma research,” Leuk Res, 2007 31(12): p. 1709-20.

Mec-2 cells [5] = test: MTT assay of cell viability/proliferation in Mec-2 cells; type: cell-based; details: for effect on cell proliferation, agents alone: 72 hours, BIBB515 at 10 μm (10^−5), Fludarabine 10 μM (FIG. 4)
[6] = tested on: multiple myeloma cell line U226B1; test: Multiple myeloma cell line proliferation; type: cell-based; details: Ro-48-8071 alone (FIG. 12)
Mec-2 cells [7] = test: Flow cytometry of glycosphingolipids in Mec-2 cells; type: cell-based; details: data not shown
[8] = 10 μM YM-53601, 10 μg/mL alemtuzumab

With CC/C(=C(\c1ccccc1)c1ccc(OCCN(C)C)cc1)c1ccccc1 [Tamoxifen] the “response of MCF-7 cells to treatment” value (MCF-7 cells) was “resistant”.

With O=C(c1ccc(Cl)cc1)N1CCC(=Cc2ccc(C3=NCCO3)cc2)CC1 [BIBB515] the “CD-54 cell surface expression” value (CD-54) was “maintained at the similar level”, the Raji cell proliferation (Raji cells; BIBB515 various concentrations, even at 10^−7, Fludarabine 5 μM (FIG. 9)) was “reduced” and the “sensitization of MCF-7 cells” value (MCF-7 cells; FIG. 11) was “sensitized”. The “proliferation of cells with estrogen” value (MCF-7 cells; MCF-7, charcoal-stripped serum, 6 days, MTT on day 7 (FIG. 11)) was “blocked”, the “cell death in MCF-7 cells” value (MCF-7 cells; relatively low doses of Tamoxifen or Anastrazole) was “induces cell death” and the “glycosphingolipids and thus lipid raft density” value (Mec-2 cells [1]) was “increase”. For the same compound, the “effect on cell viability” value (patient CLL cells; BIBB515 study) was “reducing the cell viability moderately”, the lipid lowering [2] was “lower lipids” and the “sensitization of cells to Rituximab treatment” value (Wac-3 cells; BIBB515 study (FIG. 8)) was “sensitizes the Wac-3 cells to Rituximab treatment”. The “CD-20 cell surface expression” value (CD-20) was “increased CD-20 cell surface expression”, the “some diacyl phosphatidylcholine species” value (Mec-2 cells [3]) was “reduce” and the “lysophosphatidylcholines (LPC)” value (Mec-2 cells [3]) was “reduce”. For the same compound, the “levels of phosphatidylcholines (PC)” value (Mec-2 cells [3]) was “increase”, the levels of glycosphingolipids/dihydroglycosphingolipids (Mec-2 cells [3]) was “increase” and the “levels of ether-linked phosphatidylcholines” value (Mec-2 cells [3]) was “increase”. The viability (Mec-2 cells [4]) was 65%, the cell viability (dog lymphoma cells; Chlorambucil 100 nM (FIG. 16)) was “reducing the cell viability somewhat” and the cell viability (dog lymphoma cells; lomustine 100 nM (FIG. 15)) was “reducing the cell viability somewhat”. The “effect on cell proliferation, agents alone” value (Mec-2 cells [5]) was “able to inhibit cell proliferation”.

In the case of C=CCN(C)CCCCCCOc1ccc(C(=O)c2ccc(Br)cc2)c(F)c1 [Ro-48-8071], the cell proliferation [6] is given as “provides reduction on cell proliferation”, the cell viability (patient CLL cells; Ro-48-8071 study, control over 80%) is given as “about 65%” and the lipid lowering [2] is given as “lower lipids”. The “concentration giving the highest inhibition (dose dependent sensitivity)” value (Mec-2 cells [5]; Ro-48-8071 alone (FIG. 6)) was 30 µM and the “effect on cell proliferation” value (Mec-2 cells [5]; Ro-48-8071 study, Fludarabine 10 μM (FIG. 6)) was “inhibits Mec-2 cell proliferation significantly”.

For “Rituximab: an antiCD-20 monoclonal antibody that is in use in clinics”, the “effect on cellular proliferation” value (Wac-3 cells; 10 μM TAK-475, 5 μM Fludarabine, 10 μg/mL Rituximab (FIG. 14)) was “wholly ineffective” and the “effect on cell proliferation, agents alone” value (Mec-2 cells [5]) was “resistant”.

In the case of CN(C/C=C/C#CC(C)(C)C)Cc1cccc2ccccc12 [Terbinafine, terbinafine], the Raji cell proliferation (Raji cells; Terbinafine study (FIG. 10)) was “reduced” and the “cell proliferation (MTT assay)” value (Mec-2 cells [5]; Terbinafine 60 μM, controls 0.5 (FIG. 5)) was 0.16.

In the case of F/C(COc1ccc2c(c1)[nH]c1ccccc12)=C1/CN2CCC1CC2 [YM-53601], the “glycosphingolipids / lipid raft density by flow cytometry” value (Mec-2 cells [7]) was “increase was confirmed”, the “glycosphingolipids and thus lipid raft density” value (Mec-2 cells [1]) was “increase” and the “effect on cellular proliferation” value (Wac-3 cells; [8]) was “effective at preventing cellular proliferation”. The “growth of cell population” value (Wac-3 cells; 10 μM YM-53601, 10 μg/mL alemtuzumab, control population more than tripled) was “did not achieve even a doubling”, the “some diacyl phosphatidylcholine species” value (Mec-2 cells [3]) was “reduce” and the “lysophosphatidylcholines (LPC)” value (Mec-2 cells [3]) was “reduce”. For the same compound, the “levels of phosphatidylcholines (PC)” value (Mec-2 cells [3]) was “increase”, the levels of glycosphingolipids/dihydroglycosphingolipids (Mec-2 cells [3]) was “increase” and the “levels of ether-linked phosphatidylcholines” value (Mec-2 cells [3]) was “increase”. For the same compound, the “effect on cell proliferation” value (Mec-2 cells [5]; YM-53601 100 nM (FIG. 7)) was “reduces Mec-2 cell proliferation moderately”.

Work on Nc1nc(F)nc2c1ncn2[C@@H]1O[C@H](CO)[C@@H](O)[C@@H]1O [Fludarabine] yielded a viability (Mec-2 cells [4]) of 82%.

For CC(C)(C#N)c1cc(Cn2cncn2)cc(C(C)(C)C#N)c1 [Anastrazole], the “response of MCF-7 cells to treatment” value (MCF-7 cells) was “resistant”.

For “alemtuzumab: CD52-targeting monoclonal antibody”, the “effect on cellular proliferation” value (Wac-3 cells; [8]) was “ineffective at the concentration tested”.
